Assay results from patent US10131634B2, “Method of treating pain” (Poseida Therapeutics, Inc., priority 2011, dated 2018).

Tests used:
[1] = tested on: wild type rats; experiment: Pain related behaviours after colon mustard (MO) infusion in wild type rats; format: in vivo, rat
[2] = tested on: wild type rats; experiment: Side effects in wild type rats dosed with compound; format: in vivo, rat
Protocol: The quinoline structure Formula 1a is tested in cells and rats.

SMILES | inhibition of pain ([1]; colon mustard infusion, FIG. 1 (lower body licking)) | cardiotoxicity [2] | side effects [2] | doses to inhibit pain related behaviors induced by intracolonic MO infusion (morphine equivalency) ([1]; pre-treatment, s.c., FIGS. 7-9)
Cc1cc(N2CCCCC2)nc2ccccc12 [Formula 1a] | dose responsive inhibition of pain | no cardiotoxicity | no obvious side effects | 
CN1CC[C@]23c4c5ccc(O)c4O[C@H]2[C@@H](O)C=C[C@H]3[C@H]1C5 [morphine, reference compound] |  |  |  | requires much higher doses
